According to PubChem BioAssay (NCI):
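Dose response: 5 concentrations. Exposure: 48 h. Format: 96-well plates. Endpoint: linear interpolation; highest concentration if not reached. TGI: total growth inhibition.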

How the values were obtained:
Experiment in all cases: NCI tumour cell line growth inhibition, 48 h
[1] = test system: KM20L2 colon
[2] = test system: K-562 leukemia
[3] = test system: UO-31 renal
[4] = test system: COLO 205 colon
[5] = test system: ACHN renal
[6] = test system: SF-268 CNS
[7] = test system: RXF-631 renal
[8] = test system: HOP-92 NSCLC
[9] = test system: MOLT-4 leukemia
[10] = test system: A549 NSCLC
[11] = test system: RPMI-8226 leukemia
[12] = test system: HCT-116 colon
[13] = test system: LXFL 529 NSCLC
[14] = test system: CCRF-CEM leukemia
[15] = test system: NCI-H460 lung
[16] = test system: EKVX NSCLC
[17] = test system: RXF 393 renal
[18] = test system: SW-620 colon
[19] = test system: LOX IMVI melanoma
[20] = test system: HL-60(TB) leukemia
[21] = test system: SK-MEL-28 melanoma
[22] = test system: HOP-62 NSCLC
[23] = test system: A498 renal
[24] = test system: DLD-1 colon
[25] = test system: OVCAR-8 ovarian
[26] = test system: XF 498 CNS
[27] = test system: DMS 114 small cell lung
[28] = test system: HCT-15 colon
[29] = test system: U251 CNS
[30] = test system: NCI-H522 lung
[31] = test system: SF-539 CNS
[32] = test system: SK-OV-3 ovarian
[33] = test system: SN12C renal
[34] = test system: SK-MEL-5 melanoma
[35] = test system: M14 melanoma
[36] = test system: HOP-18 NSCLC
[37] = test system: TK-10 renal
[38] = test system: DMS 273 small cell lung
[39] = test system: NCI-H23 lung
[40] = test system: SK-MEL-2 melanoma
[41] = test system: 786-0 renal
[42] = test system: OVCAR-5 ovarian
[43] = test system: IGROV1 ovarian
[44] = test system: SNB-75 CNS
[45] = test system: HT29 colon
[46] = test system: OVCAR-4 ovarian
[47] = test system: NCI-H226 lung
[48] = test system: HCC-2998 colon
[49] = test system: CAKI-1 renal
[50] = test system: SNB-78 CNS
[51] = test system: OVCAR-3 ovarian
[52] = test system: SR leukemia
[53] = test system: SF-295 CNS
[54] = test system: MALME-3M melanoma
[55] = test system: UACC-62 melanoma
[56] = test system: M19-MEL melanoma
[57] = test system: UACC-257 melanoma
[58] = test system: KM12 colon
[59] = test system: SNB-19 CNS

CCc1nc2ccccc2c(=O)n1/N=C(\N=Nc1ccc(Cl)cc1)c1ccc(N(C)C)cc1
TGI [1]: 69.9 µM | TGI [2]: 79.3 µM | TGI [3]: 60.1 µM | TGI [4]: 73.5 µM | TGI [5]: > 100 µM | TGI [6]: > 100 µM | TGI [7]: > 100 µM | TGI [8]: 59 µM | TGI [9]: 92.2 µM | TGI [10]: > 100 µM | TGI [11]: 80.7 µM | TGI [12]: 73.6 µM | TGI [13]: > 100 µM | TGI [14]: > 100 µM | TGI [15]: > 100 µM | TGI [16]: > 100 µM | TGI [17]: > 100 µM | TGI [18]: > 100 µM | TGI [19]: > 100 µM | TGI [20]: 51.6 µM | TGI [21]: > 100 µM | TGI [22]: 50 µM | TGI [23]: > 100 µM | TGI [24]: > 100 µM | TGI [25]: > 100 µM | TGI [26]: 80.7 µM | TGI [27]: 47 µM | TGI [28]: > 100 µM | TGI [29]: > 100 µM | TGI [30]: 66.9 µM | TGI [31]: > 100 µM | TGI [32]: 99.4 µM | TGI [33]: > 100 µM | TGI [34]: 64.6 µM | TGI [35]: > 100 µM | TGI [36]: > 100 µM | TGI [37]: > 100 µM | TGI [38]: > 100 µM | TGI [39]: 92.4 µM

COc1ccc(NC(=O)CC/C(CC(=O)c2ccco2)=N/Nc2ccc([N+](=O)[O-])cc2[N+](=O)[O-])cc1
TGI [1]: > 100 µM | TGI [40]: > 100 µM | TGI [2]: > 100 µM | TGI [3]: > 100 µM | TGI [41]: > 100 µM | TGI [4]: > 100 µM | TGI [5]: > 100 µM | TGI [6]: > 100 µM | TGI [7]: > 100 µM | TGI [8]: > 100 µM | TGI [9]: 97.3 µM | TGI [10]: > 100 µM | TGI [11]: 82.3 µM | TGI [42]: > 100 µM | TGI [12]: > 100 µM | TGI [13]: > 100 µM | TGI [14]: 85.1 µM | TGI [43]: > 100 µM | TGI [15]: > 100 µM | TGI [44]: > 100 µM | TGI [45]: > 100 µM | TGI [46]: > 100 µM | TGI [16]: > 100 µM | TGI [17]: > 100 µM | TGI [47]: > 100 µM | TGI [18]: > 100 µM | TGI [19]: > 100 µM | TGI [20]: 88.8 µM | TGI [21]: > 100 µM | TGI [48]: > 100 µM | TGI [49]: > 100 µM | TGI [22]: > 100 µM | TGI [23]: > 100 µM | TGI [25]: > 100 µM | TGI [50]: > 100 µM | TGI [26]: 81.4 µM | TGI [27]: 69.6 µM | TGI [51]: > 100 µM | TGI [52]: 64.4 µM | TGI [28]: > 100 µM | TGI [29]: > 100 µM | TGI [30]: > 100 µM | TGI [31]: > 100 µM | TGI [32]: > 100 µM | TGI [53]: > 100 µM | TGI [54]: > 100 µM | TGI [33]: > 100 µM | TGI [34]: > 100 µM | TGI [55]: > 100 µM | TGI [56]: > 100 µM | TGI [35]: > 100 µM | TGI [36]: > 100 µM | TGI [57]: > 100 µM | TGI [37]: > 100 µM | TGI [58]: > 100 µM | TGI [59]: > 100 µM | TGI [38]: > 100 µM | TGI [39]: > 100 µM
